{"source": "patent US9951128B2", "about": "“Caninized anti-NGF antibodies and methods thereof” (ZOETIS SERVICES LLC, priority 2012, dated 2018)", "assay": "Mean group body weight in the rat MIA study", "type": "in vivo, Rat Ola Wistar", "conditions": "morphine 10 mg/kg SC, mAbs 8 mg/kg SC", "description": "Mean group body weight for all groups (g).", "data": [{"compound": "CN1CC[C@]23c4c5ccc(O)c4O[C@H]2[C@@H](O)C=C[C@H]3[C@H]1C5", "note": "[Morphine]", "values": [{"measurement": "Mean group body weight, Baseline", "result": 178.5, "unit": "g"}, {"measurement": "Mean group body weight, Day 7", "result": 256.2, "unit": "g"}, {"measurement": "Mean group body weight, Day 14", "result": 285.1, "unit": "g"}, {"measurement": "Mean group body weight, Day 21", "result": 300.6, "unit": "g"}, {"measurement": "Mean group body weight, Day 27", "result": 316, "unit": "g"}]}]}
